The term IC50 denotes the concentration at which inhibition is half-maximal.

Test [1] deals with Toxoplasma gondii RH-β1 strain. In words: microbe, parasite or virus in culture. The format is cell-based. As to conditions: Toxoplasma gondii, read-out: IC50 assessed on Toxoplama Gondii.
Test [2] concerns asynchronous 3D7 chloroquine-sensitive P. falciparum infected red blood cells. In words: Labeled hypoxanthine incorporation assay (in vitro anti-malarial activity). The note with it: Plasmodium falciparum, 3D7, Erythrocyte, read-out: IC50 assessed on Plasmodium Falciparum. The format is cell-based.
[3] abbreviates: 3D7 chloroquine-sensitive strain, infected RBC, 48 h contact, [3H]-hypoxanthine incorporation, two independent experiments in duplicates.

Structures can show the parent of a compound that is named as a salt. Where two headings read alike, the source gives them in different places.

For the compound `O=C(OCCC(c1ccccc1)c1ccccc1)N1CCC(n2c(=O)[nH]c3ccccc32)CC1` [Compound 36, 3,3-diphenylpropyl 4-(1,2-dihydro-2-oxobenzo[d]imidazol-3-yl)piperidine-1-carboxylate], the IC50 came to 1.2 µM in test [1] and 8.54 µM in test [2] (setting [3]).

With `CC(C)C[C@@H](COC(=O)N1CCC(n2c(=O)[nH]c3ccccc32)CC1)N(Cc1ccccc1)C(=O)OC(C)(C)C` [Compound 105, (S)-2-(benzyl(tert-butoxycarbonyl)amino)-4-methylpentyl 4-(2-oxo-2,3-dihydro-1H-benzo[d]imidazol-1-yl)piperidine-1-carboxylate], the values for the IC50 in test [1] and in test [2] (setting [3]) were 2.2 µM and 1.42 µM, respectively.

For `C[C@@H](COC(=O)N1CCC(n2c(=O)[nH]c3ccccc32)CC1)N(Cc1ccccc1)Cc1ccccc1` [Compound 25, (S)-2-(dibenzylamino)propyl 4-(1,2-dihydro-2-oxobenzo[d]imidazol-3-yl)piperidine-1-carboxylate], the IC50 turned out to be 14 µM in test [1] and 4.9 µM in test [2] (setting [3]).

Consider `C[C@@H](COC(=O)N1CCC(Nc2ccccc2N)CC1)N(Cc1ccccc1)Cc1ccccc1` [Compound 87, (S)-2-(dibenzylamino)propyl 4-(2-aminophenylamino)piperidine-1-carboxylate], for which the 50% inhibitory concentration (IC50) in test [1] came out at 12.9 µM; in test [2] (setting [3]) it was 10.3 µM.

With `O=C(OC[C@@H](Cc1ccccc1)N(Cc1ccccc1)Cc1ccccc1)N1CCC(n2c(=O)[nH]c3ccccc32)CC1` [Compound 118, (R)-2-(dibenzylamino)-3-phenylpropyl 4-(1,2-dihydro-2-oxobenzo[d]imidazol-3-yl)piperidine-1-carboxylate], the values for the IC50 in test [1] and in test [2] (setting [3]) were 2.9 µM and 1.49 µM, respectively.

`COc1ccc(NC2CCN(C(=O)OC[C@H](C)N(Cc3ccccc3)Cc3ccccc3)CC2)c(OC)c1` [Compound 82, (S)-2-(dibenzylamino)propyl 4-(2,4-dimethoxyphenylamino)piperidine-1-carboxylate]: the IC50 in test [1] came to 7.3 µM; in test [2] (setting [3]) it was 2.38 µM.

As for `C[C@@H](CNC(=O)N1CCC(n2c(=O)[nH]c3ccccc32)CC1)N(Cc1ccccc1)Cc1ccccc1` [Compound 92, N—((S)-2-(dibenzylamino)propyl)-4-(1,2-dihydro-2-oxobenzo[d]imidazol-3-yl)piperidine-1-carboxamide], the IC50 came out at 15 µM in test [1] and 3.47 µM in test [2] (setting [3]).

In the case of `CC(C)(C)OC(=O)NCCn1c(=O)n(C2CCN(C(=O)OC[C@H](Cc3ccccc3)N(Cc3ccccc3)Cc3ccccc3)CC2)c2ccccc21` [Compound 74, (S)-2-(dibenzylamino)-3-phenylpropyl 4-(3-(2-tert-butyloxycarbonylaminoethyl)-2-oxo-2,3-dihydro-1H-benzo[d]imidazol-1-yl)piperidine-1-carboxylate], the IC50 in test [1] was 3.2 µM; in test [2] (setting [3]), 0.384 µM.

Turning to `O=c1[nH]c2ccccc2n1C1CCN(CCCN(Cc2ccccc2)Cc2ccccc2)CC1` [Compound 49, 1-(1-(3-(dibenzylamino)propyl)piperidin-4-yl)-1H-benzo[d]imidazol-2(3H)-one], the IC50 turned out to be 0.8 µM in test [1] and 1.27 µM in test [2] (setting [3]).

For `CCCc1ccc(S(=O)(=O)n2c(=O)n(C3CCN(C(=O)OC[C@H](C)N(Cc4ccccc4)Cc4ccccc4)CC3)c3ccccc32)cc1` [Compound 55, (S)-2-(dibenzylamino)propyl 4-(2-oxo-3-(4-propylphenylsulfonyl)-2,3-dihydro-1H-benzo[d]imidazol-1-yl)piperidine-1-carboxylate], the IC50 turned out to be 5.5 µM in test [1] and 9.1 µM in test [2] (setting [3]).

Turning to `C[C@@H](COC(=O)N1CCC(n2c(-c3ccccc3)nc3ccccc32)CC1)N(Cc1ccccc1)Cc1ccccc1` [Compound 153, (S)-2-(dibenzylamino)propyl 4-(2-phenyl-1H-benzo[d]imidazol-1-yl)piperidine-1-carboxylate], the figures for the IC50 in test [1] and in test [2] (setting [3]) were 3.75 µM and 2.33 µM, respectively.

Consider `O=C(OC[C@H](Cc1ccccc1)N(Cc1ccccc1)Cc1ccccc1)N1CCC(n2c(=O)n(S(=O)(=O)c3ccccc3)c3ccccc32)CC1` [Compound 53, (S)-2-(dibenzylamino)-3-phenylpropyl 4-(1,2-dihydro-3-phenylsulfonyl-2-oxobenzo[d]imidazol-1-yl)piperidine-1-carboxylate], for which the IC50 in test [1] turned out to be 22 µM; in test [2] (setting [3]) it was 1.94 µM.

For `COc1ccc(S(=O)(=O)N(c2ccccc2)C2CCN(C(=O)OC[C@H](C)N(Cc3ccccc3)Cc3ccccc3)CC2)cc1` [Compound 156, (S)-2-(dibenzylamino)propyl 4-(N-phenyl-4-methoxyphenylsulfonamido)piperidine-1-carboxylate], the IC50 in test [1] came out at 4 µM; in test [2] (setting [3]) it was 0.783 µM.

Consider `C[C@@H](COC(=O)N1CCC(n2c(=O)[nH]c3cc(Cl)ccc32)CC1)N(Cc1ccccc1)Cc1ccccc1` [Compound 38, (S)-2-(dibenzylamino)propyl 4-(6-chloro-1,2-dihydro-2-oxobenzo[d]imidazol-3-yl)piperidine-1-carboxylate], for which the IC50 in test [1] came out at 1 µM; in test [2] (setting [3]), 4.68 µM.

Regarding `O=c1[nH]c2ccccc2n1C1CCN(C[C@H](Cc2ccccc2)N(Cc2ccccc2)Cc2ccccc2)CC1` [Compound 51, 1-(1-((S)-2-(dibenzylamino)-3-phenylpropyl)piperidin-4-yl)-1H-benzo[d]imidazol-2(3H)-one], the concentration for half-maximal inhibition (IC50) was found to be 4 µM in test [1] and 2.11 µM in test [2] (setting [3]).

Take `C[C@@H](COC(=O)N1CC=C(n2c(=O)[nH]c3ccccc32)CC1)N(Cc1ccccc1)Cc1ccccc1` [Compound 28, (S)-2-(dibenzylamino)propyl 5,6-dihydro-4-(1,2-dihydro-2-oxobenzo[d]imidazol-3-yl)pyridine-1(2H)-carboxylate]: the IC50 is 3.5 µM in test [1] and 4.1 µM in test [2] (setting [3]).

With `O=C(OCCN(Cc1ccccc1)Cc1ccccc1)N1CCC(n2c(=O)[nH]c3ccccc32)CC1` [Compound 30, 2-(dibenzylamino)ethyl 4-(1,2-dihydro-2-oxobenzo[d]imidazol-3-yl)piperidine-1-carboxylate], the IC50 is 7.5 µM in test [1] and 6.9 µM in test [2] (setting [3]).

As for `O=c1[nH]c2ccccc2n1C1CCN(CCCCN(Cc2ccccc2)Cc2ccccc2)CC1` [Compound 9, 1-(1-(4-(dibenzylamino)butyl)piperidin-4-yl)-1H-benzo[d]imidazol-2(3H)-one], the IC50 in test [1] came out at 1.5 µM; in test [2] (setting [3]), 2.95 µM.

Take `O=C(OCCCN(Cc1ccccc1)Cc1cccc(Cl)c1)N1CCC(n2c(=O)[nH]c3ccccc32)CC1` [Compound 142, 3-(benzyl(3-chlorobenzyl)amino)propyl 4-(2-oxo-2,3-dihydro-1H-benzo[d]imidazol-1-yl)piperidine-1-carboxylate hydrochloride]: the IC50 in test [1] was determined as 1.2 µM; in test [2] (setting [3]), 2.92 µM.

Turning to `C[C@@H](COC(=O)N1CCC(Nc2ccc(I)cc2)CC1)N(Cc1ccccc1)Cc1ccccc1` [Compound 85, (S)-2-(dibenzylamino)propyl 4-(4-iodophenylamino)piperidine-1-carboxylate], the values for the IC50 in test [1] and in test [2] were 7.65 µM and 8.09 µM, respectively.

The record behind these values is patent US20100292214A1, “Compounds with Antiparasitic Activity, Applications thereof to the Treatment of Infectious Diseases Caused by Apicomplexans” (commissariat a l'Energie Atomique, priority 2007, published 2010).
